# Measurements: US7956190B2, “Benzimidazole amido derivatives as kinase inhibitors” (Hoffmann-La Roche Inc., priority 2007, dated 2011)
# Test system: HCT 116 cells
# Assay: CellTiter-Glo Assay in HCT 116 Cells
# Format: cell-based
# Conditions: HCT 116 human colon carcinoma cells, 5 days (120 h) incubation, CellTiter-Glo luminescence, tested in triplicate
# From the text: CellTiter-Glo™ Assay in HCT 116 Cells
# The CellTiter-Glo™ Luminescent Cell Viability Assay (Promega) is a homogeneous method of determining the number of viable cells in culture based on quantitation of the ATP present, which signals the presence of metabolically active cells.
# HCT 116 cells (human colon carcinoma, ATCC-No. CCl-247) were cultivated in RPMI 1640 medium with GlutaMAX™ I (Invitrogen, Cat-No. 61870-010), 5% Fetal Calf Serum (FCS, Sigma Cat-No. F4135 (FBS)); 100 Units/ml penicillin/100 μg/ml streptomycin (=Pen/Strep from Invitrogen Cat. No. 15140). For the assay the cells were seeded in 384 well plates, 1000 cells per well, in the same medium. The next day the test compounds were added in various concentrations ranging from 30 μM to 0.0015 μM (10 concentrations, 1:3 diluted). After 5 days the CellTiter-Glo™ assay was done according to the instructions of the manufacturer (CellTiter-Glo™ Luminescent Cell Viability Assay, from Promega). In brief: the cell-plate was equilibrated to room temperature for approximately 30 minutes and than the CellTiter-Glo™ reagent was added. The contents were carefully mixed for 15 minutes to induce cell lysis. After 45 minutes the luminescent signal was measured in Victor 2, (scanning multiwell spectrophotometer, Wallac).
# • Medium: RPMI 1640 with GlutaMAX™ I (Invitrogen, Cat-Nr. 61870), 5% FCS (Sigma Cat.-No. F4135), Pen/Strep (Invitrogen, Cat No. 15140). • HCT116 (ATCC-No. CCl-247): 1000 cells in 60 μl per well of 384 well plate (Greiner 781098, μClear-plate white) • After seeding incubate plates 24 h at 37° C., 5% CO2 2nd. Day: Induction (Treatment with Compounds, 10 Concentrations):
# In order to achieve a final concentration of 30 μM as highest concentration 3.5 μl of 10 mM compound stock solution were added directly to 163 μl media. Then step e) of the dilution procedure described below, was followed.
row,SMILES,IC50 [µM]
1,"N#Cc1cccc(C(=O)Nc2cccc3[nH]c(-c4c(NCc5ccccn5)cc[nH]c4=O)nc23)c1 [Example A-1, 3-Cyano-N-(2-[2-oxo-4-1 (pyridin-2-ylmethyl)-amino]-1,2-dihydro-pyridin-1H-benzoimidazol-4-yl)-benzamide]",1.36
2,"COc1ccc(C(=O)Nc2cccc3nc(-c4c(NCc5ccccn5)cc[nH]c4=O)[nH]c23)cc1 [Example A-6, 4-Methoxy-N-(2-{2-oxo-4-[(pyridin-2-ylmethyl)-amino]-1,2-dihydro-pyridin-3-yl}-3H-benzoimidazol-4-yl)-benzamide]",1 to 15
3,"O=C(Nc1cccc2nc(-c3c(NCc4ccccn4)cc[nH]c3=O)[nH]c12)c1ccc(Cl)cc1 [Example A-7, 4-Chloro-N-(2-{2-oxo-4-[(pyridin-2-ylmethyl)-amino]-1,2-dihydro-pyridin-3-yl}-3H-benzoimidazol-4-yl)-benzamide]",1 to 15
4,"COc1ccc(C(=O)Nc2cccc3nc(-c4c(NCc5cccc(Cl)c5)cc[nH]c4=O)[nH]c23)cc1 [Example A-8, N-{2-[4-(3-Chloro-benzylamino)-2-oxo-1,2-dihydro-pyridin-3-yl]-3H-benzoimidazol-4-yl}-4-methoxy-benzamide]",1 to 15
5,"COc1ccccc1C(=O)Nc1cccc2nc(-c3c(NCc4ccccc4)cc[nH]c3=O)[nH]c12 [Example A-16, N-[2-(4-Benzylamino-2-oxo-1,2-dihydro-pyridin-3-yl)-3H-benzoimidazol-4-yl]-2-methoxy-benzamide]",1 to 15
6,"O=C(Nc1cccc2nc(-c3c(NCc4ccccc4)cc[nH]c3=O)[nH]c12)c1ccccc1Cl [Example A-17, N-[2-(4-Benzylamino-2-oxo-1,2-dihydro-pyridin-3-yl)-3H-benzoimidazol-4-yl]-2-chloro-benzamide]",1 to 15

# Next, values leading:
row,IC50 [µM],SMILES
1,1 to 15,"N#Cc1cccc(C(=O)Nc2cccc3nc(-c4c(NC[C@@H](O)c5ccccc5)cc[nH]c4=O)[nH]c23)c1 [Example B-12, 3-Cyano-N-{2-[4-((S)-2-hydroxy-2-phenyl-ethylamino)-2-oxo-1,2-dihydro-pyridin-3-yl]-3H-benzoimidazol-4-yl}-benzamide]"
2,1 to 15,"O=C(Nc1cccc2nc(-c3c(NC[C@@H](O)c4ccccc4)cc[nH]c3=O)[nH]c12)C1CC1 [Example B-8, Cyclopropanecarboxylic acid {2-[4-((S)-2-hydroxy-2-phenyl-ethylamino)-2-oxo-1,2-dihydro-pyridin-3-yl]-3H-benzoimidazol-4-yl}-amide]"
3,1 to 15,"O=C(Nc1cccc2nc(-c3c(NC[C@@H](O)c4ccccc4)cc[nH]c3=O)[nH]c12)c1ccco1 [Example B-19, Furan-2-carboxylic acid {2-[4-((S)-2-hydroxy-2-phenyl-ethylamino)-2-oxo-1,2-dihydro-pyridin-3-yl]-3H-benzoimidazol-4-yl}-amide]"
4,2.78,"C=CCOC(=O)Nc1cccc2nc(-c3c(NC[C@@H](O)c4ccccc4)cc[nH]c3=O)[nH]c12 [Example C-5, {2-[4-((S)-2-Hydroxy-2-phenyl-ethylamino)-2-oxo-1,2-dihydro-pyridin-3-yl]-3H-benzoimidazol-4-yl}-carbamic acid allyl ester]"
5,1 to 15,"O=C(Nc1ccc(OC(F)(F)F)cc1)Nc1cccc2nc(-c3c(NC[C@@H](O)c4ccccc4)cc[nH]c3=O)[nH]c12 [Example D-4, 1-{2-[4-((S)-2-Hydroxy-2-phenyl-ethylamino)-2-oxo-1,2-dihydro-pyridin-3-yl]-3H-benzoimidazol-4-yl}-3-(4-trifluoromethoxy-phenyl)-urea]"
6,1 to 15,"O=C(Cc1ccccc1)Nc1cccc2nc(-c3c(NC[C@@H](O)c4ccccc4)cc[nH]c3=O)[nH]c12 [Example B-1, N-{2-[4-((S)-2-Hydroxy-2-phenyl-ethylamino)-2-oxo-1,2-dihydro-pyridin-3-yl]-3H-benzoimidazol-4-yl}-2-phenyl-acetamide]"
7,6.92,"O=C(Nc1cccc2nc(-c3c(NC[C@@H](O)c4ccccc4)cc[nH]c3=O)[nH]c12)c1cccc(F)c1 [Example B-15, 3-Fluoro-N-{2-[4-((S)-2-hydroxy-2-phenyl-ethylamino)-2-oxo-1,2-dihydro-pyridin-3-yl]-3H-benzoimidazol-4-yl}-benzamide]"
8,1 to 15,"O=C(COc1ccccc1)Nc1cccc2nc(-c3c(NC[C@@H](O)c4ccccc4)cc[nH]c3=O)[nH]c12 [Example B-6, N-{2-[4-((S)-2-Hydroxy-2-phenyl-ethylamino)-2-oxo-1,2-dihydro-pyridin-3-yl]-3H-benzoimidazol-4-yl}-2-phenoxy-acetamide]"
9,1 to 15,"O=C(Nc1cccc2nc(-c3c(NC[C@@H](O)c4ccccc4)cc[nH]c3=O)[nH]c12)c1ccccc1F [Example B-9, 2-Fluoro-N-{2-[4-((S)-2-hydroxy-2-phenyl-ethylamino)-2-oxo-1,2-dihydro-pyridin-3-yl]-3H-benzoimidazol-4-yl}-benzamide]"
10,1 to 15,"O=C(Nc1cccc2nc(-c3c(NC[C@@H](O)c4ccccc4)cc[nH]c3=O)[nH]c12)c1ccc(Cl)cc1Cl [Example B-16, 2,4-Dichloro-N-{2-[4-((S)-2-hydroxy-2-phenyl-ethylamino)-2-oxo-1,2-dihydro-pyridin-3-yl}-3H-benzoimidazol-4-yl]-benzamide]"
11,1 to 15,"COC(=O)Nc1cccc2[nH]c(-c3c(NC[C@@H](O)c4cccc(Cl)c4)cc[nH]c3=O)nc12 [Example C-7, (2-{4-[(S)-2-(3-Chloro-phenyl)-2-hydroxy-ethylamino]-2-oxo-1,2-dihydro-pyridin-3-yl}-1H-benzoimidazol-4-yl)-carbamic acid methylester]"
12,1 to 15,"O=C(COc1ccc(Cl)cc1)Nc1cccc2nc(-c3c(NC[C@@H](O)c4ccccc4)cc[nH]c3=O)[nH]c12 [Example B-11, 2-(4-Chloro-phenoxy)-N-{2-[4-((S)-2-hydroxy-2-phenyl-ethylamino)-2-oxo-1,2-dihydro-pyridin-3-yl]-3H-benzoimidazol-4-yl}-acetamide]"
13,1 to 15,"COCC(=O)Nc1cccc2nc(-c3c(NC[C@@H](O)c4ccccc4)cc[nH]c3=O)[nH]c12 [Example B-13, N-{2-[4-((S)-2-Hydroxy-2-phenyl-ethylamino)-2-oxo-1,2-dihydro-pyridin-3-yl]-3H-benzoimidazol-4-yl}-2-methoxy-acetamide]"
14,1 to 15,"CC(C)(OC(=O)Nc1cccc2nc(-c3c(NC[C@@H](O)c4ccccc4)cc[nH]c3=O)[nH]c12)C(Cl)(Cl)Cl [Example C-3, {2-[4-((S)-2-Hydroxy-2-phenyl-ethylamino)-2-oxo-1,2-dihydro-pyridin-3-yl]-3H-benzoimidazol-4-yl}-carbamic acid 2,2,2-trichloro-1,1-dimethyl-ethyl ester]"
